Data published in PMC9775191, “A Subset Screen of the Compounds Australia Scaffold Library Identifies 7-Acylaminodibenzoxazepinones as Potent and Selective Hits for Anti-Giardia Drug Discovery” (Biomedicines, 2022).

tested on: G. duodenalis BRIS/91/HEPU/1279; assay: Primary Giardia screen at 10 µM (live-cell imaging, automated counting); assay type: cell-based, Giardia duodenalis; settings: 24 h
Description: Each compound was assessed in singlicate, at a final concentration of 10 μM (0.4 μL of a 5 mM stock; diluted to a final volume of 200 μL in culture medium; 0.2% DMSO). […] Plates were incubated in sealed chambers filled with 3% O2, 5% CO2 in N2 and growth was assessed at 24 and 48 h using live cell imaging and automated counting as previously described. Growth inhibition was calculated by subtracting media only background counts and determining percentage growth relative to vehicle (0.2% DMSO) controls. The reliability of these assays was assessed by calculating Z’ factors for each plate as previously described.

Row | Compound | Average % Inhibition 24h [%]
1 | COc1ccc(Cl)cc1NC(=O)Nc1ccc2c(c1)CN(Cc1ccccc1)C2 [SN00796317] | 8.8

same assay, conditions: 24 h, first singlicate assay

Row | Compound | % Inhibition n=1 24h [%]
2 | COc1ccc(Cl)cc1NC(=O)Nc1ccc2c(c1)CN(Cc1ccccc1)C2 [SN00796317] | 17.7

same assay, conditions: 24 h, re-assessment

Row | Compound | % Inhibition n=2 24h [%]
3 | COc1ccc(Cl)cc1NC(=O)Nc1ccc2c(c1)CN(Cc1ccccc1)C2 [SN00796317] | 0.0

same assay, conditions: 48 h

Row | Compound | Average % Inhibition 48h [%]
4 | COc1ccc(Cl)cc1NC(=O)Nc1ccc2c(c1)CN(Cc1ccccc1)C2 [SN00796317] | 37.5

same assay, conditions: 48 h, first singlicate assay

Row | Compound | % Inhibition n=1 48h [%]
5 | Cc1ccccc1OCC(=O)N1CCN(Cc2nnc3n2CCCCC3)CC1 [SN00782472] | 0.5
6 | Cc1sc(C(=O)N2CCCC2)c2ncnc(NCc3ccc(F)c(Cl)c3)c12 [SN00803192] | 23.9
7 | CC1(C(=O)NCc2cccc(F)c2)CCCN(C(=O)Cc2cccs2)C1 (stereo not shown) [SN00795886] | 29.2
8 | O=C(NCc1cccc(F)c1)C1CCCN(c2nc3ccccc3n3cccc23)C1 (stereo not shown) [SN00787408] | 0.0
9 | Cc1ccc(S(=O)(=O)N2CCC[C@H]2C(=O)N2CCN(CC(=O)Nc3cccc(C)c3C)CC2)cc1 [SN00772546] | 7.6
10 | COc1ccc(C2(C(=O)N3CCC(Cc4nc(-c5ccc(F)cc5)no4)CC3)CC2)cc1 [SN00801690] | 0.0
11 | Cn1c(C(=O)N2CCCC(C(=O)NCCc3ccccc3)C2)cc2sccc21 (stereo not shown) [SN00785483] | 4.8
12 | CCc1nnc(NC(=O)c2ccsc2-n2c(C)ccc2C)s1 [SN00776389] | 11.7
13 | CCc1nc(C)c2c(C)c(C(=O)N3CCN(Cc4ccc(OC)c(F)c4)CC3)sc2n1 [SN00779632] | 14.8
14 | CCOC(=O)c1cccc(NC(=O)c2cnc(C)nc2C)c1 [SN00790942] | 0.0
15 | Cc1ccc2oc(-c3noc(C4CC(=O)N(c5ccccc5)C4)n3)c(C)c2c1 (stereo not shown) [SN00796597] | 2.9
16 | Cc1ccc2nc(C3=C(N)N(C4CCCCCC4)CC3=O)[nH]c2c1 [SN00785773] | 29.0
17 | O=C(NCCC1=CCCCC1)c1cccn1-c1cccnc1 [SN00788993] | 14.0
18 | CSc1ccccc1NC(=O)C1CCN(S(C)(=O)=O)c2ccccc2O1 (stereo not shown) [SN00794287] | 8.2
19 | Cc1cccc(N(C)c2ccc3cc(S(=O)(=O)N4CCCC4)ccc3n2)c1 [SN00788730] | 7.2
20 | CCS(=O)(=O)N1CCC2(CC1)OC(=O)C(C)=C2C(=O)Nc1ccc(C)cc1C [SN00791146] | 0.0
21 | CCOC(=O)C1CCN(C(=O)c2ccc3c(c2)C(=O)N(c2ccccc2C)C3=O)CC1 [SN00774484] | 0.0
22 | CN(C)[C@@H]1CN(Cc2ccc3[nH]ccc3c2)CC[C@H]1CO [SN00801277] | 6.2
23 | Cc1ccc2nc(-c3ccc(C)c(NC(=O)c4cccnc4)c3)[nH]c2c1 [SN00787045] | 8.2
24 | Cc1ccc(Nc2cc(N3CCN(S(=O)(=O)c4ccc(C)c(C)c4)CC3)nc(C)n2)cc1 [SN00786472] | 20.7
25 | Cn1c(C(=O)N2CCN(c3ccccc3)CC2)cc2c1CCN(Cc1ccccc1)C2 [SN00799590] | 1.6
26 | Cc1c(N2CCC(C(=O)NC3CCCCCC3)CC2)c(=O)n(CC(C)C)c(=O)n1-c1ccccc1 [SN00790002] | 9.5
27 | COc1ccc(CNC(=O)N2CCN(C)CC2c2ccccc2)cn1 (stereo not shown) [SN00782363] | 0.0
28 | COc1ccc(NC(=O)N2CCN(CC3CCCCN3C)CC2)cn1 (stereo not shown) [SN00773239] | 0.0
29 | O=C(N1CCN(c2cccc(Cl)c2)CC1)C1(S(=O)(=O)c2ccc(Cl)cc2)CC1 [SN00784607] | 0.0
30 | O=C(c1cccc(N2CCNC(c3ccccc3)C2)n1)N1CCN(c2ccccc2)CC1 (stereo not shown) [SN00800322] | 13.5

Row | Compound | % Inhibition n=1 48h [%]
31 | Cc1ccc(-c2nc(C(=O)N3CCN(c4ccc(Cl)cc4)CC3)cs2)s1 [SN00796526] | 7.8
32 | CCCc1cc(N2CCOCC2)n2nc(C)c(-c3ccccc3)c2n1 [SN00780810] | 20.2
33 | CCOc1ccc(NS(=O)(=O)c2cc(C(=O)Nc3cc(C)ccc3C)[nH]n2)cc1 [SN00784397] | 15.3
34 | O=C(c1cn2ccnc(-c3ccccc3)c2n1)N1CCCCC1 [SN00801929] | 30.6
35 | COc1cccc(CNC(=O)c2nsc(C(=O)NCc3ccccc3F)c2N)c1 [SN00797759] | 13.9
36 | COc1ccc(CNS(=O)(=O)c2ccc3onc(C(=O)N4CCCCC4)c3c2)cc1OC [SN00797555] | 0.0
37 | CCc1nc(N2CCCC2=O)sc1C(=O)Nc1ccc(C)c(C)c1 [SN00796500] | 0.0
38 | Cc1ccc(NC(=O)CN2N=C(C(=O)Nc3ccc(F)cc3)CCC2=O)cc1F [SN00799502] | 8.0
39 | Cc1cc(NS(=O)(=O)c2cc(-c3[nH]ncc3C(=O)N3CCCC3)oc2C)ccc1F [SN00800668] | 0.0
40 | CCN1CCN(c2ccc(-c3nc(-c4cccc(F)c4)no3)cn2)CC1 [SN00796649] | 48.2
41 | CCCNC(=O)CN1CCN(c2nc3ccccn3c2[N+](=O)[O-])CC1 [SN00778045] | 31.4
42 | CN1CCN(CC2CCN(c3ccc([N+](=O)[O-])cc3Cl)CC2)CC1 [SN00781176] | 33.0
43 | O=C(c1ccccc1)N1CCN(C(=O)c2ccc3noc(-c4ccccc4)c3c2)CC1 [SN00777400] | 15.8
44 | Cc1cccc(N(C)S(=O)(=O)c2cc(-c3ccno3)sc2C)c1 [SN00790813] | 6.1
45 | CCCOc1ccc(CN2CCCC2c2c(C)noc2C)cc1 (stereo not shown) [SN00793908] | 16.7
46 | COc1ccc(-c2csc(-n3nccc3C(F)(F)F)n2)cc1OC [SN00776140] | 27.9
47 | COc1ccc(N2C(=O)c3ccncc3C2=O)c(OC)c1 [SN00807767] | 28.6
48 | COc1ccc2cc(-c3csc(Cc4nc(-c5ccccn5)no4)n3)c(=O)oc2c1 [SN00797738] | 2.5
49 | O=C(Cc1ccccc1[N+](=O)[O-])N1CCN(C(=O)c2ccc3c(c2)OCO3)CC1 [SN00774731] | 9.4
50 | CC(=O)Oc1ccc(C(=O)Nc2ccc3nc(-c4ccc(Cl)cc4)oc3c2)cc1 [SN00783571] | 0.0
51 | Cc1nnc(C2Cc3ccccc3CN2CCOc2ccc(F)cc2)o1 (stereo not shown) [SN00783149] | 0.0
52 | CC(=O)c1ccc(Nc2ncnc3c2c(C)c(C)n3-c2ccccc2)cc1 [SN00789011] | 48.7
53 | COc1cc2ccccc2cc1C(=O)Nc1nc2c(s1)CN(Cc1ccccc1)CC2 [SN00788706] | 9.9
54 | COc1cccc(-c2noc(Nc3cccc(C)c3)n2)c1 [SN00791775] | 0.0
55 | Cc1cc(NC(=O)C2CCN(S(=O)(=O)c3c(C)n[nH]c3C)CC2)ccc1Br [SN00784824] | 11.8
56 | COc1cccc(C2(C)NC(=O)N(Cc3csc(-c4ccccc4)n3)C2=O)c1 (stereo not shown) [SN00782700] | 0.0

Row | Compound | % Inhibition n=1 48h [%]
57 | Cn1ncc2c(NC3CCN(Cc4ccncc4)CC3)ncnc21 [SN00771916] | 0.0
58 | O=C(c1nnn(-c2ccc(Cl)cc2)c1-c1cccnc1)N1CCCCC1 [SN00796543] | 20.4
59 | COc1ccc(CCNS(=O)(=O)c2cccc(-c3nc(-c4ccc(C)cc4)no3)c2)cc1OC [SN00797669] | 6.7
60 | Cc1cc(C)cc(N2CCN(CCCNC(=O)c3nc(-c4ccncn4)no3)CC2)c1 [SN00802991] | 0.0
61 | COc1ccccc1-c1cc(C(=O)Nc2sc(Nc3ccccc3)nc2C(N)=O)[nH]n1 [SN00792956] | 11.1
62 | Cc1noc2ncc(C(=O)N3CCN(C(C)C)CC3)cc12 [SN00779057] | 0.0
63 | Cc1ccc(CNC(=O)c2ccc(-n3cnc(NC(=O)C(C)C)c3)cc2)cc1 [SN00796570] | 29.7
64 | COc1ccc(Cl)cc1NC(=O)Nc1ccc2c(c1)CN(Cc1ccccc1)C2 [SN00796317] | 57.6
65 | Cc1cc(N2CCC(C(=O)N3CCN(c4ccc(F)cc4)CC3)CC2)n2nc(-c3ccccc3)cc2n1 [SN00795072] | 0.0
66 | COc1ccc(CN2CCCN(c3ncnc4ccccc34)CC2)cc1 [SN00775453] | 0.0
67 | O=C(c1ccc2[nH]cnc2c1)N1CCN(Cc2cccc(Cl)c2)CC1 [SN00774568] | 0.0
68 | O=C(NCCc1ccccc1)c1ccc(Nc2nc3ccccc3n3nnnc23)cc1 [SN00784739] | 8.5
69 | CCCN(C(=O)c1cccc(NC(=O)[C@H]2[C@@H]3C[C@@H]4[C@H]2C(=O)O[C@@H]4C3)c1)c1ccccc1F (relative stereo) [SN00785932] | 2.8
70 | Cc1cc(C)n(Cc2ccc(C(=O)N3CCN(Cc4n[nH]c(C)n4)CC3)cc2)n1 [SN00782137] | 1.5
71 | Cc1cnc(CN2CCOC(CNc3cccnn3)C2)o1 (stereo not shown) [SN00775722] | 13.5
72 | c1ccc(CCN2CCC(c3c[nH]c4ncccc34)CC2)nc1 [SN00780706] | 11.5
73 | O=C(Nc1nnc(S(=O)(=O)N2CCc3ccccc32)s1)c1ccccc1 [SN00787260] | 37.8
74 | Cc1ccc(NC(=O)c2cc3c(=O)n(CC(C)C)ccc3n2C)cc1 [SN00797828] | 17.5
75 | CC(=O)N1CCN(Cc2nc3cc(Cl)ccc3n2C)CC1 [SN00773871] | 0.0
76 | O=C(NCCCN1CCCCC1)c1cc(-c2cccs2)nc2ccccc12 [SN00784290] | 13.3
77 | Cc1cccc(-c2nc3sc(N4CCCCC4)nn3c2NC(=O)C2CC2)c1 [SN00799546] | 23.2
78 | Cc1ccc(CNC(=O)Cn2c(C)cc(C)c(-c3nc(-c4ccccc4)no3)c2=O)cc1 [SN00792891] | 0.0
79 | CCOC(=O)c1ccc(NC(=O)c2nc(C)n(C3CCN(C(C)=O)CC3)c2C)cc1 [SN00800452] | 13.2
80 | COc1ccc(NC(=O)N2CCN(c3cc(C)nc(N4CCOCC4)n3)CC2)cc1 [SN00786878] | 44.4
81 | CNc1nc(C(N)=O)c(NC(=O)c2ccc(OC)cc2)s1 [SN00794269] | 25.8

same assay, conditions: 48 h, re-assessment

Row | Compound | % Inhibition n=2 48h [%]
82 | COc1ccc(Cl)cc1NC(=O)Nc1ccc2c(c1)CN(Cc1ccccc1)C2 [SN00796317] | 17.4
